Laboratory results as given in PubChem BioAssay (NCI).
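How tested: cells in 96-well plates exposed to compound for 48 hours at five concentrations. GI50 is the concentration that inhibits growth by half. TGI is the concentration that stops growth completely.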

Experiments:
Experiment in all cases: DTP human tumour cell line panel, 48 h
[1] = system: ACHN renal
[2] = system: LOX IMVI melanoma
[3] = system: PC-3 prostate
[4] = system: SK-OV-3 ovarian
[5] = system: HOP-92 NSCLC
[6] = system: SF-295 CNS
[7] = system: HCT-15 colon
[8] = system: RXF 393 renal
[9] = system: HOP-62 NSCLC
[10] = system: MCF7 breast

Q: What does the source list for O=c1[nH]cnc2c1nnn2CCCCCCCCCCCCn1nnc2c(=O)[nH]cnc21?
A: TGI [1]: > 100 µM; TGI [2]: > 100 µM; TGI [3]: > 100 µM; TGI [4]: 38.5 µM; TGI [5]: 53 µM; TGI [6]: 48.4 µM; TGI [7]: > 100 µM; TGI [8]: > 50.5 µM; TGI [9]: 54 µM; TGI [10]: > 100 µM

Q: How did the TGI [1] turn out when Cc1ccc(S(=O)(=O)NC(CN)C(=O)O)cc1 (stereo not given) was run?
A: > 100 µM

Q: What about the TGI [2] of the same compound?
A: > 100 µM

Q: And the TGI [3]?
A: > 100 µM

Q: What about the TGI [4] of the same compound?
A: > 100 µM

Q: And the TGI [5]?
A: > 100 µM

Q: What about the TGI [6] of the same compound?
A: > 100 µM

Q: What about the TGI [7] of the same compound?
A: > 100 µM

Q: And the TGI [8]?
A: > 100 µM

Q: And the TGI [9]?
A: > 100 µM

Q: What about the TGI [10] of the same compound?
A: > 100 µM

Q: N=c1c2c(=N)n3c(nc2nc2n1-c1ccccc1Sc1ccccc1-2)sc1cc(Cl)ccc13 was tested. Which GI50 [1] did it give?
A: 2180 nM

Q: And the TGI [1]?
A: > 100 µM

Q: What about the GI50 [2] of the same compound?
A: 2700 nM

Q: And the TGI [2]?
A: 14.6 µM

Q: What about the GI50 [3] of the same compound?
A: 2.64 µM

Q: What about the TGI [3] of the same compound?
A: > 100 µM

Q: And the GI50 [4]?
A: 4.42 µM

Q: What about the TGI [4] of the same compound?
A: 37 µM

Q: What about the GI50 [5] of the same compound?
A: 517 nM

Q: And the TGI [5]?
A: 4.15 µM

Q: What about the GI50 [6] of the same compound?
A: 1.82 µM

Q: What about the TGI [6] of the same compound?
A: 9.52 µM

Q: What about the GI50 [7] of the same compound?
A: 2140 nM

Q: And the TGI [7]?
A: > 100 µM

Q: And the GI50 [8]?
A: 2460 nM

Q: What about the TGI [8] of the same compound?
A: 9.52 µM

Q: And the GI50 [9]?
A: 5.87 µM

Q: And the TGI [9]?
A: 24.1 µM

Q: And the GI50 [10]?
A: 2210 nM

Q: What about the TGI [10] of the same compound?
A: > 100 µM

Q: How did the GI50 [1] turn out when CC(=O)c1c(C)[nH]c(-c2nc3ccc(N4CCN(C)CC4)cc3[nH]2)c1-c1ccccc1 was run?
A: 876 nM

Q: And the TGI [1]?
A: 12.3 µM

Q: What about the GI50 [2] of the same compound?
A: 546 nM

Q: And the TGI [2]?
A: 10.1 µM

Q: And the GI50 [3]?
A: 1.04 µM

Q: What about the TGI [3] of the same compound?
A: > 100 µM

Q: And the GI50 [4]?
A: 0.97 µM

Q: What about the TGI [4] of the same compound?
A: > 100 µM

Q: What about the GI50 [5] of the same compound?
A: 585 nM

Q: What about the TGI [5] of the same compound?
A: 24.5 µM

Q: What about the GI50 [6] of the same compound?
A: 2.07 µM

Q: What about the TGI [6] of the same compound?
A: 19.2 µM

Q: And the GI50 [7]?
A: 719 nM

Q: And the TGI [7]?
A: 18.9 µM

Q: And the GI50 [8]?
A: 2840 nM

Q: And the TGI [8]?
A: 16.1 µM

Q: What about the GI50 [9] of the same compound?
A: 1.01 µM

Q: What about the TGI [9] of the same compound?
A: 33.5 µM

Q: What about the GI50 [10] of the same compound?
A: 266 nM

Q: What about the TGI [10] of the same compound?
A: 13.5 µM

Q: Which results are given for C=C1C(=O)OC2/C=C(/C)C(OC(C)=O)C/C=C(\C)C(OC(=O)C3(C)OC3C)C(O)C12 (stereo not given)?
A: TGI [1]: > 100 µM; TGI [2]: > 100 µM; TGI [3]: > 100 µM; TGI [4]: > 100 µM; TGI [5]: > 100 µM; TGI [6]: > 100 µM; TGI [7]: > 100 µM; TGI [8]: > 100 µM; TGI [9]: > 100 µM; TGI [10]: > 100 µM

Q: With CN1C(=O)C2(c3ccccc31)N(c1ccc(Cl)cc1)C(=O)C2(c1ccccc1)c1ccccc1 (stereo not given) as the compound, how does the GI50 [1] read?
A: 78400 nM

Q: And the TGI [1]?
A: > 100 µM

Q: What about the GI50 [2] of the same compound?
A: > 100000 nM

Q: And the TGI [2]?
A: > 100 µM

Q: And the GI50 [3]?
A: 5.63 µM

Q: And the TGI [3]?
A: > 100 µM

Q: What about the GI50 [4] of the same compound?
A: > 100 µM

Q: And the TGI [4]?
A: > 100 µM

Q: And the GI50 [5]?
A: 5620 nM

Q: And the TGI [5]?
A: 49.1 µM

Q: And the GI50 [6]?
A: 11 µM

Q: What about the TGI [6] of the same compound?
A: > 100 µM

Q: What about the GI50 [7] of the same compound?
A: > 100000 nM

Q: What about the TGI [7] of the same compound?
A: > 100 µM

Q: What about the GI50 [8] of the same compound?
A: 64600 nM

Q: And the TGI [8]?
A: > 100 µM

Q: What about the GI50 [9] of the same compound?
A: > 100 µM

Q: What about the TGI [9] of the same compound?
A: > 100 µM

Q: What about the GI50 [10] of the same compound?
A: 39600 nM

Q: What about the TGI [10] of the same compound?
A: > 100 µM

Q: Which GI50 [1] does the source give for N#CC1c2ccccc2C=CN1C(=O)N(c1ccccc1)c1ccccc1 (stereo not given) here?
A: 1790 nM

Q: What about the TGI [1] of the same compound?
A: 3.3 µM

Q: And the GI50 [2]?
A: 2040 nM

Q: And the TGI [2]?
A: 4.61 µM

Q: What about the GI50 [3] of the same compound?
A: 9.82 µM

Q: And the TGI [3]?
A: 25.3 µM

Q: And the GI50 [4]?
A: 16.5 µM

Q: What about the TGI [4] of the same compound?
A: 31.3 µM

Q: What about the GI50 [5] of the same compound?
A: 2000 nM

Q: And the TGI [5]?
A: 4.36 µM

Q: And the GI50 [6]?
A: 12.6 µM

Q: And the TGI [6]?
A: 25.2 µM

Q: And the GI50 [7]?
A: 2510 nM

Q: What about the TGI [7] of the same compound?
A: 6.93 µM

Q: What about the GI50 [8] of the same compound?
A: 1730 nM

Q: What about the TGI [8] of the same compound?
A: 3.2 µM

Q: And the GI50 [9]?
A: 13.6 µM

Q: And the TGI [9]?
A: 26.7 µM

Q: And the GI50 [10]?
A: 2900 nM

Q: And the TGI [10]?
A: 9.56 µM
